Measured values reported in ChEMBL document CHEMBL1932914, “A new class of non-thiazolidinedione, non-carboxylic-acid-based highly selective peroxisome proliferator-activated receptor (PPAR) γ agonists: design and synthesis of benzylpyrazole acylsulfonamides” (Bioorg Med Chem, 2012).
pEC50, pIC50: −log10 of the molar value. Activity calls are given as the source filed them. The rule behind the calls is not given here.

How the values were obtained:
[1] = species: Homo sapiens; test: Selectivity ratio of EC50 for human PPARalpha to EC50 for human PPARgamma1
[2] = Clearance in human liver microsomes at 1 umol/L after 20 mins by HPLC analysis; format: ADME, Microsome; conditions: read-out: CLH
[3] = target: PPAR delta/gamma (Homo sapiens) (UniProt P37231+Q03181); test: Selectivity ratio of EC50 for human PPARdelta to EC50 for human PPARgamma1
[4] = target: T1, Peroxisome proliferator-activated receptor alpha (Homo sapiens, UniProt Q07869); test: Agonist activity at human PPARalpha expressed in COS-1 cells after 1 day by luciferase reporter gene transactivation assay; format: functional, cell-based
T1 sequence (Q07869 whole entry): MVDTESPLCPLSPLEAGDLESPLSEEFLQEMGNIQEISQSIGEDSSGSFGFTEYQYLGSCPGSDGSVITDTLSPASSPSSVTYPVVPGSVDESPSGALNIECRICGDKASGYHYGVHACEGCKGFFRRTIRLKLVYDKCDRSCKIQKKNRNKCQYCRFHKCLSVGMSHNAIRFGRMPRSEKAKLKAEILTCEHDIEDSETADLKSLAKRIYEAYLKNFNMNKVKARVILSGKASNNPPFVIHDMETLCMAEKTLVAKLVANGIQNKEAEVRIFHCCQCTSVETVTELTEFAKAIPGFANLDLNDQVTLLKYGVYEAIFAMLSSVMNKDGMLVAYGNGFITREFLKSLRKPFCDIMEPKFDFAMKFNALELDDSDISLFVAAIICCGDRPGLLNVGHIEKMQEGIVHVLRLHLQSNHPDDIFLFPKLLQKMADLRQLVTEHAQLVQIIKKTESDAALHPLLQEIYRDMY

[5] = target: T2, Peroxisome proliferator-activated receptor delta (Homo sapiens, UniProt Q03181); test: Agonist activity at human PPARdelta expressed in COS-1 cells after 2 days by luciferase reporter gene transactivation assay; format: functional, cell-based
T2 sequence (Q03181 whole entry): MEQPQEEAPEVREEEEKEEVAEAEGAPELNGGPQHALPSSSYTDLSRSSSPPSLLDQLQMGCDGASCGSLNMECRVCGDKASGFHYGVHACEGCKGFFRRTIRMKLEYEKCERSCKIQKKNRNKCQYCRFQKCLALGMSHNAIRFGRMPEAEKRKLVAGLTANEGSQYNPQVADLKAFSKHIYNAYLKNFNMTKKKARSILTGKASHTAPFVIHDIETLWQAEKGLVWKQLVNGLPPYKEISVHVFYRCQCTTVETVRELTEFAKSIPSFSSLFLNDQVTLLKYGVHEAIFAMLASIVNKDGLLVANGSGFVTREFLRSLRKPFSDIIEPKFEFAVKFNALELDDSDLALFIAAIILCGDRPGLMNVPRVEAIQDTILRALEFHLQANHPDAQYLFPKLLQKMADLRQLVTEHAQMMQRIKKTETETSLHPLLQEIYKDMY

[6] = target: T3, Peroxisome proliferator-activated receptor delta (Homo sapiens) (UniProt Q03181); test: Binding affinity to PPARdelta at 10 uM by competitive binding assay
T3 sequence (whole entry): T2 sequence (Q03181 whole entry)

[7] = target: T4, Peroxisome proliferator-activated receptor gamma (Homo sapiens, UniProt P37231); test: Displacement of [3H]-AD-5061 from human GST-tagged PPARgamma
T4 sequence (P37231 whole entry): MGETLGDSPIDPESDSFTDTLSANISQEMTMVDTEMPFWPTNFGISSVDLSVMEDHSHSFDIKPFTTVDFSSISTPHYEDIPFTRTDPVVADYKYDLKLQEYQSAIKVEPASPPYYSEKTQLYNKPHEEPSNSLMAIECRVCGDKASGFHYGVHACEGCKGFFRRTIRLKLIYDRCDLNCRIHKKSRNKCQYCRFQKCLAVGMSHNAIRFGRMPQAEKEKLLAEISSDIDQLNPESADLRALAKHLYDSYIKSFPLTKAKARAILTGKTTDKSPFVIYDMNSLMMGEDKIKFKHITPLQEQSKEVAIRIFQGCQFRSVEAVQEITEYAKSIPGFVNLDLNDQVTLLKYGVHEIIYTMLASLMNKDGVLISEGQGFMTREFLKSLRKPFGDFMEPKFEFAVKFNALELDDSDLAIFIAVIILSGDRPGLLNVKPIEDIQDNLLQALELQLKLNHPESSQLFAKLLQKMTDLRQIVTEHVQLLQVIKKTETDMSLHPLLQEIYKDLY

[8] = tested on: Rattus norvegicus; test: Antidiabetic activity in po dosed fatty Wister rat assessed as reduction of plasma glucose level administered once daily for 7 days; format: functional; conditions: for ED25: 168 h
[9] = tested on: Rattus norvegicus; test: Antidiabetic activity in po dosed fatty Wister rat assessed as reduction of triglyceride level administered once daily for 7 days; format: functional; conditions: for ED25: 168 h
[10] = target: T5, Peroxisome proliferator-activated receptor alpha (Homo sapiens) (UniProt Q07869); test: Binding affinity to PPARalpha at 10 uM by competitive binding assay
T5 sequence (whole entry): T1 sequence (Q07869 whole entry)

[11] = Clearance in rat liver microsomes at 1 umol/L after 20 mins by HPLC analysis; format: ADME, Microsome; conditions: read-out: CLH
[12] = target: T4, Peroxisome proliferator-activated receptor gamma; test: Agonist activity at full length human PPARgamma1 transfected in […] cells co expressing RXRalpha and PPRE after 1 day by luciferase reporter gene transactivation assay; format: functional, cell-based, CHO-K1; conditions: for pEC50: read-out: EC50
[13] = target: T5, Peroxisome proliferator-activated receptor alpha (Homo sapiens); test: Agonist activity at human PPARalpha expressed in COS-1 cells at 10 uM after 1 day by luciferase reporter gene transactivation assay; format: functional, cell-based

| Compound | Ratio EC50 [1] | microsomal CLint at 1 µM [2] [µL/min/mg] | Ratio EC50 [3] | pEC50 [4] | pEC50 [5] | pEC50 [12] | other results |
| --- | --- | --- | --- | --- | --- | --- | --- |
| CCCCCS(=O)(=O)NC(=O)CCc1cc(C(C)C)nn1Cc1ccc(C(F)(F)F)cc1Cl | > 500 | 136 | > 500 | < 5.00 | < 5.00 | – | – |
| CCCCCS(=O)(=O)NC(=O)/C=C/c1cc(OC(C)C)nn1Cc1ccc(C(F)(F)F)cc1Cl | > 500 | 26 | > 500 | < 5.00 | < 5.00 | – | Activity [6]: inactive; pIC50 [7]: 7.64; Activity [8]: Dose-dependent effect; ED25 [8]: 0.12 mg/kg; Activity [9]: Dose-dependent effect; ED25 [9]: 0.04 mg/kg; Activity [10]: inactive; microsomal CLint at 1 µM [11]: 33 µL/min/mg |
| CC(C)Oc1cc(CCC(=O)NS(=O)(=O)C2CCCCC2)n(Cc2ccc(Cl)cc2Cl)n1 | – | – | – | < 5.00 | < 5.00 | 6.82 | – |
| CCCCCS(=O)(=O)NC(=O)CCc1cc(OC(C)C)nn1Cc1ccc(Cl)cc1Cl | > 500 | 192 | > 500 | – | – | – | Activity [8]: inactive; microsomal CLint at 1 µM [11]: 128 µL/min/mg |
| CCCCCCS(=O)(=O)NC(=O)CCc1cc(OC(C)C)nn1Cc1ccc(Cl)cc1Cl | – | – | – | < 5.00 | < 5.00 | 7.68 | – |
| CCCCCS(=O)(=O)NC(=O)CCCc1cc(OCCCC)nn1Cc1ccc(Cl)cc1Cl | – | – | – | – | – | 7.17 | – |
| CCCCCS(=O)(=O)NC(=O)/C=C/c1cc(OC(C)C)nn1Cc1ccc(Cl)cc1Cl | > 500 | 29 | > 500 | < 5.00 | < 5.00 | – | – |
| COCCOc1cc(/C=C/C(=O)NS(=O)(=O)CCC(C)C)n(Cc2ccc(C(F)(F)F)cc2Cl)n1 | > 500 | 34 | > 500 | < 5.00 | < 5.00 | 8.05 | Activity [13]: 47% |
| CCCCCS(=O)(=O)NC(=O)CCc1cc(C2CC2)nn1Cc1ccc(C(F)(F)F)cc1Cl | > 500 | 78 | > 500 | < 5.00 | < 5.00 | 7.89 | – |
| CCCCCS(=O)(=O)NC(=O)CCc1cc(-c2ccccc2)nn1Cc1ccc(Cl)cc1Cl | – | 111 | – | < 5.00 | < 5.00 | 7.96 | – |
| CCCCCS(=O)(=O)NC(=O)CCc1cc(C(C)C)nn1Cc1ccc(Cl)cc1Cl | > 500 | 124 | > 500 | < 5.00 | < 5.00 | 7.89 | – |
| CCCCCS(=O)(=O)NC(=O)CCc1cc(OCCCC)nn1Cc1ccc(Cl)cc1Cl | – | – | – | < 5.00 | < 5.00 | – | – |
| CC(C)Oc1cc(CCC(=O)O)n(Cc2ccc(Cl)cc2Cl)n1 | – | – | – | – | – | 6.30 | – |
| CC(C)Oc1cc(CCC(=O)NS(C)(=O)=O)n(Cc2ccc(Cl)cc2Cl)n1 | – | – | – | – | – | 6.35 | – |
| CCCCCS(=O)(=O)NC(=O)Cc1cc(OCCCC)nn1Cc1ccc(Cl)cc1Cl | – | – | – | – | – | < 5.00 | – |
| CCCCCS(=O)(=O)NC(=O)/C=C/c1cc(C2CC2)nn1Cc1ccc(C(F)(F)F)cc1Cl | > 500 | 54 | > 500 | < 5.00 | < 5.00 | – | Activity [6]: inactive; pIC50 [7]: 7.92; Activity [8]: Dose-dependent effect; ED25 [8]: 0.42 mg/kg; Activity [9]: Dose-dependent effect; ED25 [9]: 0.55 mg/kg; Activity [10]: inactive; microsomal CLint at 1 µM [11]: 116 µL/min/mg |
| CCCCCS(=O)(=O)NC(=O)CCc1cc(OCc2ccccc2)nn1Cc1ccc(Cl)cc1Cl | – | 100 | – | < 5.00 | < 5.00 | 7.85 | – |
| CCCCCS(=O)(=O)NC(=O)CCc1cc(OC(C)C)nn1Cc1ccc(C(F)(F)F)cc1Cl | > 500 | 163 | > 500 | < 5.00 | < 5.00 | 8.00 | Activity [6]: inactive; pIC50 [7]: 7.68; Activity [10]: inactive |
| CCCCCS(=O)(=O)NC(=O)/C=C/c1cc(C(C)C)nn1Cc1ccc(Cl)cc1Cl | > 500 | 99 | > 500 | < 5.00 | < 5.00 | 8.09 | – |
| CCCCCS(=O)(=O)NC(=O)CCCCc1cc(OCCCC)nn1Cc1ccc(Cl)cc1Cl | – | – | – | – | – | 7.54 | – |
| CCCCCS(=O)(=O)NC(=O)CCc1cc(OCc2ccccn2)nn1Cc1ccc(Cl)cc1Cl | – | 224 | – | < 5.00 | < 5.00 | 6.92 | – |
| CC(C)Oc1cc(CCC(=O)NS(=O)(=O)c2ccccc2)n(Cc2ccc(Cl)cc2Cl)n1 | – | – | – | < 5.00 | < 5.00 | 6.96 | – |
| CC(C)Oc1cc(CCC(=O)NS(=O)(=O)Cc2ccccc2)n(Cc2ccc(Cl)cc2Cl)n1 | – | 107 | – | – | – | 6.59 | – |
| CCCCS(=O)(=O)NC(=O)CCc1cc(OC(C)C)nn1Cc1ccc(Cl)cc1Cl | – | 165 | – | < 5.00 | < 5.00 | 7.40 | – |
| CCCS(=O)(=O)NC(=O)CCc1cc(OC(C)C)nn1Cc1ccc(Cl)cc1Cl | – | – | – | – | – | 6.80 | – |
| CCCCCS(=O)(=O)NC(=O)c1cc(OCCCC)nn1Cc1ccc(Cl)cc1Cl | – | – | – | – | – | – | EC50 ([12]; cho-k1): Not Active |
| CCCCCS(=O)(=O)NC(=O)CCc1cc(OCCOC)nn1Cc1ccc(Cl)cc1Cl | – | 144 | – | < 5.00 | < 5.00 | 7.51 | – |
| CC(C)CCS(=O)(=O)NC(=O)CCc1cc(OC(C)C)nn1Cc1ccc(Cl)cc1Cl | – | – | – | < 5.00 | < 5.00 | 7.77 | – |
